Results: US20240148821A1, “PHARMACEUTICAL USE OF CYCLIC PEPTIDE COMPOUND” (CHUGAI SEIYAKU KABUSHIKI KAISHA, priority 2021, published 2024)
Numbered stars: 1 amine (or outer) side, 2 acyl side, 3 side chain; on linkers, the order of the positions; unused ones are H or OH. Bridge positions count the residues as written; N and C are the ends. Square brackets hold non-standard residues; d marks the D form. Peptide text beside a SMILES is read from it. * marks the point of attachment. hPhe(3,5-F2-4-CF3) = N[C@@H](CCc1cc(F)c(C(F)(F)F)c(F)c1)C(=O)O; hPhe(3-Cl-4-CF3) = N[C@@H](CCc1ccc(C(F)(F)F)c(Cl)c1)C(=O)O; NEtPhe(4-CF3) = CCN[C@@H](Cc1ccc(C(F)(F)F)cc1)C(=O)O; NMePhe(4-CF3) = CN[C@@H](Cc1ccc(C(F)(F)F)cc1)C(=O)O; 3Oxa8azabicyclo(3.2.1)octane = C1CC2COCC1N2*; NEtPhe(4-Me) = CCN[C@@H](Cc1ccc(C)cc1)C(=O)O; NMePhe(4-Me) = CN[C@@H](Cc1ccc(C)cc1)C(=O)O; NMePhe(2-Cl) = CN[C@@H](Cc1ccccc1Cl)C(=O)O; hPhe(4-Cl) = N[C@@H](CCc1ccc(Cl)cc1)C(=O)O; NMedβ3hAla = C[C@H](CC(=O)[*:2])N(C)[*:1]; NMeGly(cPent) = CN[C@H](C(=O)O)C1CCCC1; NMeGly(cBu) = CN[C@H](C(=O)O)C1CCC1; NMeCha = CN[C@@H](CC1CCCCC1)C(=O)O; Hyp = O=C(O)[C@@H]1C[C@@H](O)CN1; NMeAhp(2) = CCCCC[C@H](NC)C(=O)O; NMeChg = CN[C@H](C(=O)O)C1CCCCC1; NMeI = CC[C@H](C)[C@H](NC)C(=O)O; NMeT = CN[C@H](C(=O)O)[C@@H](C)O; NMeD = CN[C@@H](CC(=O)O)C(=O)O; NMeL = CN[C@@H](CC(C)C)C(=O)O; NMeV = CN[C@H](C(=O)O)C(C)C; d(β3hA) = C[C@@H](N)CC(=O)O; NMeC = CN[C@@H](CS)C(=O)O; NMeS = CN[C@@H](CO)C(=O)O; Morpholide = C1CN(*)CCO1; NMeA = CN[C@@H](C)C(=O)O; NMeAib = CNC(C)(C)C(=O)O; Piperidide = C1CCN(*)CC1; Pyrrolidide = C1CCN(*)C1; Ac5c = NC1(C(=O)O)CCCC1; Aze = O=C(O)[C@@H]1CCN1; Ac4c = NC1(C(=O)O)CCC1; Sar = CNCC(=O)O; OAll = C=CCO*

What was measured:
[1] = test system: Human pancreatic cancer cell line AsPC-1 (G12D mutation Kras); test: AsPC-1 cell growth inhibition (AsPC-1 CGI); assay type: cell-based; details: read-out: AsPC-1 cell growth inhibition, 50% growth inhibitory concentration (IC50 value); 96 hours, CellTiter-Glo, values classified in ranges
Experimental: Test compounds were serially dilated with dimethyl sulfoxide, and 200 nL was then dispensed to a U-bottom 96-well plate using Labcyte Echo. […] The cell suspension was dispensed to a. plate containing a test compound at 100 μL per well and incubated at 37° C. in a 5% carbon dioxide gas incubator. 96 hours later, 80 μL of CellTiter-Glo (Promega) was added to each well and fluorescence was measured.

[2] = target: protein-protein interaction between Kras and SOS1 (biotin-tagged human Kras loaded with GDP, His-tagged human SOS1) (Homo sapiens (Human), UniProt P01116, G12D); test: Protein-protein interaction inhibition between Kras and SOS1 (KrasG12D-SOS PPI) using AlphaScreen; assay type: biochemical; details: AlphaScreen; biotin-tagged human Kras loaded with GDP, His-tagged human SOS1; read-out: KRAS G12D-SOS PPI IC50;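 further: kras produced in E. coli, Ni-coupled donor beads and streptavidin acceptor beads, excitation 680 nm with emission detected at 520–620 nm via singlet oxygen transfer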

Structure (SMILES)	IC50 [1] [µM]	IC50 [2] [µM]
CC[C@H](C)[C@@H]1NC(=O)[C@H](C)N(C)C(=O)C[C@@H](C(=O)N2CCCCC2)N(C)C(=O)[C@H](C(C)C)N(C)C(=O)C2(CCCC2)NC(=O)[C@@H]2CCCN2C(=O)[C@H](CCc2ccc(Cl)cc2)NC(=O)CN(C)C(=O)[C@H](CC2CCCCC2)N(C)C(=O)[C@@H]2CCN2C(=O)[C@H](C)N(C)C1=O [Compound 903] ([NMeA]I[NMeA][Aze][NMeCha][Sar][hPhe(4-Cl)]P[Ac5c][NMeV][NMeD]-Piperidide; lactam N-11)	> 0.5	0.024
CCO[C@@H]1C[C@H]2C(=O)NC3(CCC3)C(=O)N(C)[C@@H](C3CCCC3)C(=O)N(C)[C@H](C)CC(=O)N(C)[C@@H](CC(C)C)C(=O)N[C@@H]([C@@H](C)CC)C(=O)N(C)[C@@H](C)C(=O)N3CC[C@H]3C(=O)N(CC)[C@@H](Cc3ccc(C)cc3)C(=O)N(C)CC(=O)N[C@@H](CCc3ccc(C(F)(F)F)c(Cl)c3)C(=O)N2C1 [Compound 713] (cyclo([Ac4c][NMeGly(cPent)][NMedβ3hAla][NMeL]I[NMeA][Aze][NEtPhe(4-Me)][Sar][hPhe(3-Cl-4-CF3)][Hyp](Et)))	≤ 0.02	0.004
CCO[C@@H]1C[C@H]2C(=O)NC3(CCC3)C(=O)N(C)[C@@H]([C@@H](C)CC)C(=O)N(C)[C@H](C)CC(=O)N(C)[C@@H](CC(C)C)C(=O)N[C@@H]([C@@H](C)CC)C(=O)N(C)[C@@H](C)C(=O)N3CC[C@H]3C(=O)N(CC)[C@@H](Cc3ccc(C(F)(F)F)cc3)C(=O)N(C)CC(=O)N[C@@H](CCc3cc(F)c(C(F)(F)F)c(F)c3)C(=O)N2C1 [Compound 731] (cyclo([Ac4c][NMeI][NMedβ3hAla][NMeL]I[NMeA][Aze][NEtPhe(4-CF3)][Sar][hPhe(3,5-F2-4-CF3)][Hyp](Et)))	≤ 0.02	0.0035
C=CCOC(=O)C[C@H]1C(=O)NC2(CCCC2)C(=O)N(C)[C@@H](C(C)C)C(=O)N(C)[C@H](C(=O)N2CCCCC2)CC(=O)N(C)[C@@H](C)C(=O)N[C@@H]([C@@H](C)CC)C(=O)N(C)CC(=O)N(C)CC(=O)N(C)[C@@H](CC2CCCCC2)C(=O)N(C)CC(=O)N[C@@H](CCc2ccc(C(F)(F)F)c(Cl)c2)C(=O)N1C [Compound 792] ([NMeA]I[Sar][Sar][NMeCha][Sar][hPhe(3-Cl-4-CF3)][NMeD](OAll)[Ac5c][NMeV][NMeD]-Piperidide; lactam N-11)	> 0.5	0.0035
CC[C@H](C)[C@@H]1NC(=O)[C@H](CC(C)C)N(C)C(=O)C[C@@H](C(=O)N(C)C)N(C)C(=O)[C@H](C2CCCC2)N(C)C(=O)C2(CCCC2)NC(=O)[C@@H]2CCCN2C(=O)[C@H](CCc2ccc(C(F)(F)F)c(Cl)c2)NC(=O)CN(C)C(=O)[C@H](CC2CCCCC2)N(C)C(=O)[C@@H]2CCN2C(=O)[C@H](C)N(C)C1=O [Compound 1777] ([NMeL]I[NMeA][Aze][NMeCha][Sar][hPhe(3-Cl-4-CF3)]P[Ac5c][NMeGly(cPent)][NMeD]-NMe2; lactam N-11)	≤ 0.02	0.00063
CC[C@H](C)[C@@H]1NC(=O)[C@H](CC(C)C)N(C)C(=O)C[C@@H](C(=O)N2CCCCC2)N(C)C(=O)[C@H](C2CCCCC2)N(C)C(=O)C2(CCCC2)NC(=O)[C@H]([C@@H](C)O)N(C)C(=O)[C@H](CCc2ccc(C(F)(F)F)c(Cl)c2)NC(=O)CN(C)C(=O)[C@H](CC2CCCCC2)N(C)C(=O)CN(C)C(=O)CN(C)C1=O [Compound 118] ([NMeL]I[Sar][Sar][NMeCha][Sar][hPhe(3-Cl-4-CF3)][NMeT][Ac5c][NMeChg][NMeD]-Piperidide; lactam N-11)	> 0.5	0.0019
CC[C@H](C)[C@@H]1NC(=O)[C@H](CO)N(C)C(=O)C[C@@H](C(=O)N2CCCCC2)N(C)C(=O)[C@H](C(C)C)N(C)C(=O)C2(CCCC2)NC(=O)[C@@H]2CCCN2C(=O)[C@H](CCc2ccc(C(F)(F)F)c(Cl)c2)NC(=O)CN(C)C(=O)[C@H](CC2CCCCC2)N(C)C(=O)[C@@H]2CCN2C(=O)[C@H](C)N(C)C1=O [Compound 1837] ([NMeS]I[NMeA][Aze][NMeCha][Sar][hPhe(3-Cl-4-CF3)]P[Ac5c][NMeV][NMeD]-Piperidide; lactam N-11)	> 0.5	0.002
CC[C@H](C)[C@@H]1NC(=O)[C@H](CC(C)C)N(C)C(=O)C[C@@H](C(=O)N2CCCCC2)N(C)C(=O)[C@H](C(C)C)N(C)C(=O)[C@H](C)NC(=O)[C@@H]2CCCN2C(=O)[C@H](CCc2ccc(C(F)(F)F)c(Cl)c2)NC(=O)CN(C)C(=O)[C@H](CC2CCCCC2)N(C)C(=O)[C@@H]2CCN2C(=O)[C@H](C)N(C)C1=O [Compound 1211] ([NMeL]I[NMeA][Aze][NMeCha][Sar][hPhe(3-Cl-4-CF3)]PA[NMeV][NMeD]-Piperidide; lactam N-11)	> 0.5	0.031
CC[C@H](C)[C@@H]1NC(=O)[C@H](C)N(C)C(=O)C[C@@H](C(=O)N(C)C)N(C)C(=O)[C@H](C(C)C)N(C)C(=O)C2(CCCC2)NC(=O)[C@H](Cc2ccccc2Cl)N(C)C(=O)[C@H](CCc2ccc(C(F)(F)F)c(Cl)c2)NC(=O)CN(C)C(=O)[C@H](CC2CCCCC2)N(C)C(=O)CN(C)C(=O)CN(C)C1=O [Compound 317] ([NMeA]I[Sar][Sar][NMeCha][Sar][hPhe(3-Cl-4-CF3)][NMePhe(2-Cl)][Ac5c][NMeV][NMeD]-NMe2; lactam N-11)	> 0.5	0.03
CCO[C@@H]1C[C@H]2C(=O)NC3(CCCC3)C(=O)N(C)[C@@H](C3CCCCC3)C(=O)N(C)[C@H](C(=O)N3CCCC3)CC(=O)N(C)[C@@H](C3CCC3)C(=O)N[C@@H]([C@@H](C)CC)C(=O)N(C)CC(=O)N(C)CC(=O)N(C)[C@@H](CC3CCCCC3)C(=O)N(C)CC(=O)N[C@@H](CCc3ccc(C(F)(F)F)c(Cl)c3)C(=O)N2C1 [Compound 1204] ([NMeGly(cBu)]I[Sar][Sar][NMeCha][Sar][hPhe(3-Cl-4-CF3)][Hyp](Et)[Ac5c][NMeChg][NMeD]-Pyrrolidide; lactam N-11)	≤ 0.02	0.00044
CC[C@H](C)[C@@H]1NC(=O)[C@H](CC(C)C)N(C)C(=O)C[C@@H](C)NC(=O)[C@H](CC(C)C)N(C)C(=O)C2(CCCC2)NC(=O)[C@H](CC(C)C)N(C)C(=O)[C@H](CCc2ccc(C(F)(F)F)c(Cl)c2)NC(=O)CN(C)C(=O)[C@H](CC2CCCCC2)N(C)C(=O)CN(C)C(=O)CN(C)C1=O [Compound 217] (cyclo([Ac5c][NMeL][d(β3hA)][NMeL]I[Sar][Sar][NMeCha][Sar][hPhe(3-Cl-4-CF3)][NMeL]))	> 0.5	0.066
CC[C@H](C)[C@@H]1NC(=O)[C@H](CC(C)C)N(C)C(=O)C[C@@H](C)N(C)C(=O)[C@H]([C@@H](C)CC)N(C)C(=O)C2(CCCC2)NC(=O)[C@@H]2CCCN2C(=O)[C@H](CCc2cc(F)c(C(F)(F)F)c(F)c2)NC(=O)CN(C)C(=O)[C@H](Cc2ccc(C(F)(F)F)cc2)N(C)C(=O)[C@@H]2CCN2C(=O)[C@H](C)N(C)C1=O [Compound 907] (cyclo([Ac5c][NMeI][NMedβ3hAla][NMeL]I[NMeA][Aze][NMePhe(4-CF3)][Sar][hPhe(3,5-F2-4-CF3)]P))	≤ 0.02	0.0014
CC[C@H](C)[C@@H]1NC(=O)CSC[C@@H](C(=O)N(C)C)N(C)C(=O)[C@H]([C@@H](C)CC)N(C)C(=O)C2(CCCC2)NC(=O)[C@@H]2CCCN2C(=O)[C@H](CCc2ccc(C(F)(F)F)c(Cl)c2)NC(=O)CN(C)C(=O)[C@H](Cc2ccc(C)cc2)N(C)C(=O)CN(C)C(=O)CN(C)C1=O [Compound 2173, (3S,9S,18S,24R,27S,33S)-18,27-bis[(2S)-butan-2-yl]-3-[2-[3-chloro-4-(trifluoromethyl)phenyl]ethyl]—N,N,7,10,13,16,25,28-octamethyl-9-[(4-methylphenyl)methyl]-2,5,8,11,14,17,20,26.,29,32-decaoxospiro[22-thia-1,4,7,10,13,16,19,25,28,31-decazabicyclo[31.3.0]hexatriacontane-30,1-cyclopentane]-24-carboxamide] ({CH2CO}-I[Sar][Sar][NMePhe(4-Me)][Sar][hPhe(3-Cl-4-CF3)]P[Ac5c][NMeI][NMeC]-NMe2; thioether N-10)	> 0.5	0.006
CCCCC[C@H]1C(=O)N[C@@H]([C@@H](C)CC)C(=O)N[C@@H](C)C(=O)N2CC[C@H]2C(=O)N(C)[C@@H](Cc2ccc(C(F)(F)F)cc2)C(=O)N(C)CC(=O)N[C@@H](CCc2ccc(C(F)(F)F)c(Cl)c2)C(=O)N2CCC[C@H]2C(=O)NC2(CCCC2)C(=O)N(C)[C@@H]([C@@H](C)CC)C(=O)N(C)[C@H](C(=O)N2CCOCC2)CC(=O)N1C [Compound 54] ([NMeAhp(2)]IA[Aze][NMePhe(4-CF3)][Sar][hPhe(3-Cl-4-CF3)]P[Ac5c][NMeI][NMeD]-Morpholide; lactam N-11)	≤ 0.02	0.0019
CCO[C@@H]1C[C@H]2C(=O)NC3(CCCC3)C(=O)N(C)[C@@H](C3CCCCC3)C(=O)N(C)[C@H](C(=O)N3C4CCC3COC4)CC(=O)N(C)[C@@H](CC(C)C)C(=O)N[C@@H]([C@@H](C)CC)C(=O)N(C)CC(=O)N(C)CC(=O)N(C)[C@@H](CC3CCCCC3)C(=O)N(C)CC(=O)N[C@@H](CCc3cc(F)c(C(F)(F)F)c(F)c3)C(=O)N2C1 [Compound 1341] ([NMeL]I[Sar][Sar][NMeCha][Sar][hPhe(3,5-F2-4-CF3)][Hyp](Et)[Ac5c][NMeChg][NMeD]-{3Oxa8azabicyclo(3.2.1)octane}; lactam N-11)	≤ 0.02	0.00082
CC[C@H](C)[C@@H]1NC(=O)[C@H](C)N(C)C(=O)C[C@@H](C)N(C)C(=O)[C@H](CC(C)C)NC(=O)C(C)(C)N(C)C(=O)[C@H](CC(C)C)NC(=O)[C@H](CCc2ccc(C(F)(F)F)c(Cl)c2)NC(=O)CN(C)C(=O)[C@H](CC2CCCCC2)N(C)C(=O)CN(C)C(=O)CN(C)C1=O [Compound 1380] (cyclo(I[Sar][Sar][NMeCha][Sar][hPhe(3-Cl-4-CF3)]L[NMeAib]L[NMedβ3hAla][NMeA]))	> 0.5	0.016
